Assay results as given in patent US8993622B2, “Antiviral compounds” (Eirium AB, priority 2010, dated 2015).
Like-named read-outs stand apart in the source and are kept apart here.

Columns and labels:
Ad5 = assay: microbe, parasite or virus in culture; type: cell-based, human adenovirus; conditions: for Inh. (% inhibition of Ad5 at 15 μM): Ad5, 15 μM (Table 2); for EC50: A549; for inhibition at 5 µM: A549, read-out: % Inh. at 5 μM; for effect on the replication of Ad5 (QPCR): A549 cells; for inhibition at 20 µM: A549, read-out: % Inh. at 20 μM; for activity compared with A02 (inhibition of adenovirus replication): second generation inhibitors, Table 4
cells = assay: Cellular toxicity of select compounds (% dead cells, CC50); type: cell-based
[1] = unidentified adenovirus, A549, read-out: % Inh. at 15 μM
[2] = Human adenovirus sp., A549, read-out: Inh. (% inhibition of Ad5 at 15 μM)

## O=C(O)c1cccc(NC(=O)c2ccccc2NC(=O)c2ccccc2)c1 [Compound 8a, 3-[(2-benzoylamino)benzoylamino]-benzoic acid]
Ad5
  Inh. (% inhibition of Ad5 at 15 μM): 8%

## O=C(Nc1ccccc1C(=O)Nc1ccccc1C(=O)O)c1ccc(F)cc1 [Compound 17j, 2-[2-(4-Fluorobenzoylamino)-benzoylamino]benzoic acid]
cells
  Toxicity at 30 μM (% dead cells after 24 h): 14 ± 10%
  Toxicity at 60 μM (% dead cells after 24 h): 10 ± 10%
Ad5; unidentified adenovirus
  EC50: 3500 nM
  inhibition at 5 µM: 76 ± 10%
Ad5; [1]
  inhibition at 15 µM: 95 ± 1%

## CC(C)(C)C(=O)Nc1ccccc1C(=O)Nc1ccccc1C(=O)O [Compound 17d, 2-[2-(Trimethylacetylamino)benzoylamino]benzoic acid]
Ad5; unidentified adenovirus
  inhibition at 5 µM: 45 ± 7%
Ad5; [1]
  inhibition at 15 µM: 52 ± 18%

## O=C(Nc1ccccc1C(=O)O)c1ccccc1 [Compound A01, reference compound]
Ad5
  effect on the replication of Ad5 (QPCR): Neither the smaller (A01) nor the larger (A03) molecule showed any anti-adenoviral effect

## COc1ccc(NC(=O)c2ccccc2NC(=O)c2ccccc2F)c(C(=O)O)c1 [Compound 35d, 2-[2-(2-fluorobenzoylamino)-benzoylamino]-5-methoxybenzoic acid]
Ad5; unidentified adenovirus
  inhibition at 5 µM: 28 ± 20%
Ad5; [1]
  inhibition at 15 µM: 78 ± 3%

## CCOC(=O)c1ccc(NC(=O)c2ccccc2NC(=O)c2ccccc2)cc1 [Compound 7b, Ethyl 4-[(2-benzoylamino)benzoylamino]-benzoate]
Ad5
  Inh. (% inhibition of Ad5 at 15 μM): 8%

## O=C(O)c1ccc(NC(=O)c2ccccc2NC(=O)c2ccccc2)cc1 [Compound 8b, 4-[(2-benzoylamino)benzoylamino]-benzoic acid]
Ad5
  Inh. (% inhibition of Ad5 at 15 μM): 8%

## COc1ccc(C(=O)O)c(NC(=O)c2ccccc2NC(=O)c2ccccc2F)c1 [Compound 35c, 2-[2-(2-fluorobenzoylamino)-benzoylamino]-4-methoxybenzoic acid]
Ad5; unidentified adenovirus
  inhibition at 5 µM: 79 ± 21%
Ad5; [1]
  inhibition at 15 µM: 95 ± 22%

## Cc1ccc(C(=O)Nc2ccccc2C(=O)Nc2ccccc2C)cc1 [Compound 12g, 4-Methyl-N-{2-[(2-methylphenyl)carbamoyl]phenyl}-benzamide]
Ad5; Human adenovirus sp.
  inhibition at 5 µM: 24.5%
  inhibition at 20 µM: 22.2%

## Cc1ccccc1C(=O)Nc1cccc(C(=O)Nc2ccccc2C(=O)O)c1 [Compound 12e, 2-[[3-(2-Methyl-benzoylamino)benzoyl]amino]-benzoic acid]
Ad5; Human adenovirus sp.
  inhibition at 5 µM: 44%
  inhibition at 20 µM: 55.8%

## O=C(O)c1ccccc1NC(=O)c1ccccc1NC(=O)C1CCCCC1 [Compound 17e, 2-[[2-(Cyclohexanecarboxylamino)benzoyl]amino]benzoic acid]
Ad5
  activity compared with A02 (inhibition of adenovirus replication): diminished but not abolished activity
Ad5; unidentified adenovirus
  inhibition at 5 µM: 20 ± 1%
Ad5; [1]
  inhibition at 15 µM: 55 ± 11%

## O=C(Nc1cc(Cl)ccc1C(=O)Nc1ccccc1C(=O)O)c1ccccc1F [Compound 35f, 2-[4-chloro-2-(2-fluorobenzoylamino)-benzoylamino]benzoic acid]
cells
  Toxicity at 30 μM (% dead cells after 24 h): 14 ± 5%
  Toxicity at 60 μM (% dead cells after 24 h): 25 ± 8%
Ad5; unidentified adenovirus
  EC50: 4140 nM
  inhibition at 5 µM: 57 ± 5%
Ad5; [1]
  inhibition at 15 µM: 78 ± 2%

## O=C(Nc1ccc(C(=O)Nc2ccccc2C(=O)O)cc1)c1ccccc1 [Compound 8d, 2-[(4-benzoylamino)benzoylamino]-benzoic acid]
Ad5; [2]
  inhibition at 15 µM: 47%

## COc1ccc(C(=O)Nc2ccccc2C(=O)Nc2ccccc2C(=O)O)cc1 [Compound 12f, 2-[[2-(4-Methoxy-benzoylamino)benzoyl]amino]-benzoic acid]
Ad5; Human adenovirus sp.
  inhibition at 5 µM: 25.2%
  inhibition at 20 µM: 96.5%

## CCOC(=O)c1cccc(NC(=O)c2ccccc2NC(=O)c2ccccc2)c1 [Compound 7a, 4-Ethyl 3-[(2-benzoylamino)benzoylamino]-benzoate]
Ad5; [2]
  inhibition at 15 µM: 0%

## O=C(Cc1ccccc1)Nc1ccccc1C(=O)Nc1ccccc1C(=O)O [Compound 17k, 2-[2-(Phenylacetylamino)benzoylamino]benzoic acid]
Ad5; unidentified adenovirus
  inhibition at 5 µM: 32 ± 19%
Ad5; [1]
  inhibition at 15 µM: 21 ± 12%

## O=C(O)CCC(=O)Nc1ccccc1C(=O)Nc1ccccc1C(=O)O [Compound 17f, 2-[2-(4-Carboxybutanoylamido)benzoyl]aminobenzoic acid]
Ad5; unidentified adenovirus
  inhibition at 5 µM: 0%
Ad5; [1]
  inhibition at 15 µM: 0%

## CS(=O)(=O)Nc1ccccc1C(=O)Nc1ccccc1C(=O)O [Compound 17b, 2-[2-(Methanesulfonylamino)benzoylamino]benzoic acid]
Ad5; unidentified adenovirus
  inhibition at 5 µM: 0%
Ad5; [1]
  inhibition at 15 µM: 23 ± 12%

## COc1ccc(C(=O)Nc2ccccc2C(=O)O)c(NC(=O)c2ccccc2F)c1 [Compound 35h, 2-[4-methoxy-2-(2-fluorobenzoylamino)-benzoylamino]benzoic acid]
cells
  Toxicity at 30 μM (% dead cells after 24 h): 10 ± 15%
  Toxicity at 60 μM (% dead cells after 24 h): 18 ± 15%
Ad5; unidentified adenovirus
  EC50: 1500 nM
  inhibition at 5 µM: 92 ± 3%
Ad5; [1]
  inhibition at 15 µM: 89 ± 6%

## NC(=O)c1ccccc1NC(=O)c1cccc(NC(=O)c2ccccc2)c1 [Compound 12d, 2-[[3-(Benzoylamino)benzoyl]amino]-benzamide]
Ad5; Human adenovirus sp.
  inhibition at 5 µM: 51.1%
  inhibition at 20 µM: 44.2%

## COc1ccc(NC(=O)c2ccccc2F)c(C(=O)Nc2ccccc2C(=O)O)c1 [Compound 35i, 2-[5-methoxy-2-(2-fluorobenzoylamino)-benzoylamino]benzoic acid]
cells
  Toxicity at 30 μM (% dead cells after 24 h): 18 ± 12%
  Toxicity at 60 μM (% dead cells after 24 h): 28 ± 12%
Ad5; unidentified adenovirus
  EC50: 1400 nM
  inhibition at 5 µM: 91 ± 6%
Ad5; [1]
  inhibition at 15 µM: 97 ± 1%

## O=C(Nc1cccc(C(=O)Nc2ccccc2C(=O)O)c1)c1ccccc1 [Compound 8c, 2-[(3-benzoylamino)benzoylamino]-benzoic acid]
Ad5
  Inh. (% inhibition of Ad5 at 15 μM): 39%

## O=C(Nc1ccccc1C(=O)Nc1ccccc1C(=O)Nc1ccccc1C(=O)O)c1ccccc1 [Compound A03, reference compound]
Ad5
  effect on the replication of Ad5 (QPCR): Neither the smaller (A01) nor the larger (A03) molecule showed any anti-adenoviral effect

## O=C(Nc1ccccc1C(=O)Nc1ccccc1C(=O)O)c1ccccc1F [Compound 17h, 2-[2-(2-Fluorobenzoylamino)-benzoylamino]benzoic acid]
cells
  Toxicity at 30 μM (% dead cells after 24 h): 17 ± 9%
  Toxicity at 60 μM (% dead cells after 24 h): 29 ± 12%
cells; Table 7
  cellular toxicity compared with A02: slightly more toxic than A02
Ad5
  activity compared with A02 (inhibition of adenovirus replication): statistically significantly higher activity than A02
Ad5; unidentified adenovirus
  EC50: 2300 nM
  inhibition at 5 µM: 96 ± 1%
Ad5; [1]
  inhibition at 15 µM: 96 ± 1%

## O=C(O)c1ccccc1NC(=O)c1ccccc1NCc1ccccc1 [Compound 17g, 2-[2-(Benzylamino)benzoylamino]benzoic acid]
cells
  Toxicity at 30 μM (% dead cells after 24 h): 6 ± 10%
  Toxicity at 60 μM (% dead cells after 24 h): 11 ± 13%
Ad5
  activity compared with A02 (inhibition of adenovirus replication): diminished but not abolished activity
Ad5; unidentified adenovirus
  EC50: 11400 nM
  inhibition at 5 µM: 44 ± 17%
Ad5; [1]
  inhibition at 15 µM: 79 ± 5%

## O=C(O)Cc1ccccc1NC(=O)c1ccccc1NC(=O)c1ccccc1 [Compound 23, 2-[2-(benzoylamino)benzoylamino]phenylacetic acid]
Ad5; unidentified adenovirus
  inhibition at 5 µM: 0%
Ad5; [1]
  inhibition at 15 µM: 0%

## Cc1ccc(S(=O)(=O)Nc2ccccc2C(=O)Nc2ccccc2C(=O)O)cc1 [Compound 17c, 2-[2-(p-Toluenesulfonylamino)benzoylamino]benzoic acid]
Ad5; unidentified adenovirus
  inhibition at 5 µM: 2 ± 24%
Ad5; [1]
  inhibition at 15 µM: 8 ± 35%

## O=C(Nc1ccc(Cl)cc1C(=O)Nc1ccccc1C(=O)O)c1ccccc1F [Compound 35g, 2-[5-chloro-2-(2-fluorobenzoylamino)-benzoylamino]benzoic acid]
cells
  Toxicity at 30 μM (% dead cells after 24 h): 11 ± 7%
  Toxicity at 60 μM (% dead cells after 24 h): 24 ± 9%
Ad5; unidentified adenovirus
  EC50: 680 nM
  inhibition at 5 µM: 89 ± 2%
Ad5; [1]
  inhibition at 15 µM: 91 ± 2%

## O=C(Nc1ccccc1C(=O)Nc1ccccc1C(=O)O)c1cccc(F)c1 [Compound 17i, 2-[2-(3-Fluorobenzoylamino)-benzoylamino]benzoic acid]
Ad5; unidentified adenovirus
  inhibition at 5 µM: 41 ± 32%
Ad5; [1]
  inhibition at 15 µM: 0%

## O=C(Nc1ccccc1C(=O)Nc1ccc(Cl)cc1C(=O)O)c1ccccc1F [Compound 35b, 2-[2-(2-fluorobenzoylamino)benzoylamino]-5-chlorobenzoic acid]
Ad5; unidentified adenovirus
  inhibition at 5 µM: 0%
Ad5; [1]
  inhibition at 15 µM: 0%

## O=C(Nc1ccccc1C(=O)Nc1cc(F)c(F)cc1C(=O)O)c1ccccc1F [Compound 35e, 2-[2-(2-fluorobenzoylamino)-benzoylamino]-4,5-difluorobenzoic acid]
Ad5; unidentified adenovirus
  inhibition at 5 µM: 0%
Ad5; [1]
  inhibition at 15 µM: 0%

## CCOC(=O)c1ccccc1NC(=O)c1cccc(NC(=O)c2ccccc2)c1 [Compound 7c, Ethyl 2-[(3-benzoylamino)benzoylamino]-benzoate]
Ad5
  Inh. (% inhibition of Ad5 at 15 μM): 25%

## O=C(Nc1ccccc1C(=O)Nc1ccccc1)c1ccccc1 [Compound 11, 2-Benzoylamino-N-phenyl-benzamide]
Ad5; [2]
  inhibition at 15 µM: 18%

## O=C(Cc1ccccc1NC(=O)c1ccccc1)Nc1ccccc1C(=O)O [Compound 28, 2-[2-(benzoylamino)phenylacetylamino]benzoic acid]
Ad5; unidentified adenovirus
  inhibition at 5 µM: 0%
Ad5; [1]
  inhibition at 15 µM: 0%

## CCOC(=O)c1ccccc1NC(=O)c1ccc(NC(=O)c2ccccc2)cc1 [Compound 7d, Ethyl 2-[(4-benzoylamino)benzoylamino]-benzoate]
Ad5
  Inh. (% inhibition of Ad5 at 15 μM): 15%

## O=C(Nc1ccccc1C(=O)Nc1cc(Cl)ccc1C(=O)O)c1ccccc1F [Compound 35a, 2-[2-(2-fluorobenzoylamino)-benzoylamino]-4-chlorobenzoic acid]
Ad5; unidentified adenovirus
  inhibition at 5 µM: 0%
Ad5; [1]
  inhibition at 15 µM: 61%

## CC(=O)Nc1ccccc1C(=O)Nc1ccccc1C(=O)O [Compound 17a, 2-[2-(Acetylamino)benzoylamino]benzoic acid]
Ad5; unidentified adenovirus
  inhibition at 5 µM: 4 ± 11%
Ad5; [1]
  inhibition at 15 µM: 24 ± 14%

## Cc1ccc(C(=O)Nc2ccccc2C(=O)Nc2ccccc2C(=O)O)cc1 [Compound 12c, 2-[[2-(4-Methyl-benzoylamino)benzoyl]amino]-benzoic acid]
Ad5; Human adenovirus sp.
  inhibition at 5 µM: 89.2%
  inhibition at 20 µM: 98.5%
